# Structures can show the parent of a compound that is named as a salt.
# Target: T1, GPR119 receptor (UniProt Q8TDV5, S309L, species not given)
# T1 sequence (Q8TDV5 1-335 S309L): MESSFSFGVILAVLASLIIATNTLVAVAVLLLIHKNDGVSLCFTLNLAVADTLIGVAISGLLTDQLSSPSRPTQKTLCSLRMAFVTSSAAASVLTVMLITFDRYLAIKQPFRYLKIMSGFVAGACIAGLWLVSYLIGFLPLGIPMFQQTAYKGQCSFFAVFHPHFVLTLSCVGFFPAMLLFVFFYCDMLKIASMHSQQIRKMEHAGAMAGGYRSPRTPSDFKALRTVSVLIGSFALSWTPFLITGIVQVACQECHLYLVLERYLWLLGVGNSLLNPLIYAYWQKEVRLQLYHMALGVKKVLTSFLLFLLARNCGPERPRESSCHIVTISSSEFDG
# Assay: GPR119 signaling, cyclic AMP (cAMP) homogenous time resolved fluorescence (HTRF) assay
# Format: cell-based
# Details: CHO cells with Gα15 and murine GPR119, or HEK293 Flp-In cells with human GPR119 S309L; table does not say which; read-out: Activity: inflection points, denoted as EC50 values (agonist activation of GPR119, cAMP)
# Source text: Measurement of GPR119 Signaling Using a Cyclic AMP (cAMP) Homogenous Time Resolved Fluorescence (HTRF) Assay
# Chinese hamster ovary (CHO) cell lines stably transfected with the permissive guanine nucleotide binding protein alpha 15 (Gα15) and […] GPR119 were maintained in DMEM media containing FBS, penicillin-streptomycin, puromycin, and G418 (geneticin). Alternatively, human embryonic kidney (HEK)293 Flp-In cells (Invitrogen, Carlsbad, Calif.) were stably transfected with a human SNP variant (S309L) of GPR119 and maintained in DMEM media containing FBS, penicillin-streptomycin, and hygromycin. Agonist activation of the GPR119 receptor was measured in receptor transfected cells described above, treated with compounds of this invention, using a commercial homogenous time resolved fluorescence (HTRF) kit for measurement of cAMP (CisBio, Bedford, Mass.). The assay was performed in 96-well half-volume plates (murine) or 384-well plates (human) following the manufacturers instructions. Briefly, suspended cells were incubated with a dose titration of test compound at room temperature for 60 min, lysed, and incubated with HTRF reagents for an additional 60 min. The plate was read using an Envision multilabel reader (Perkin Elmer) adjusted to read time resolved fluorescence and the cAMP concentrations were extrapolated from a cAMP calibration curve. […] The concentration of test compound required to stimulate a half-maximal response (EC50), and efficacy as compared to an internal agonist control, was determined from a sigmoidal 4-parameter curve fit of the resulting plot of normalized activity versus compound concentration.
row,SMILES,EC50 [nM]
1,"Cc1nc(C#N)cc(OCC[C@@H]2C[C@@H]2C2CCN(c3ncc(Cl)cn3)CC2)n1 (racemic) [Ex 51, Rac-cis-6-(2-{2-[1-(5-chloropyrimidin-2-yl)piperidin-4-yl]cyclopropyl}ethoxy)-2-methylpyrimidine-4-carbonitrile]",< 10
2,"Cc1cc(OCC[C@@H]2C[C@@H]2C2CCN(c3ncc(Cl)cn3)CC2)nc(C#N)n1 (racemic) [Ex 52, Rac-cis-4-(2-{2-[1-(5-chloropyrimidin-2-yl)piperidin-4-yl]cyclopropyl}ethoxy)-6-methylpyrimidine-2-carbonitrile]",< 10
3,"Cc1nc(C#N)cc(OCC[C@@H]2C[C@@H]2C2CCN(c3ncc(F)cn3)CC2)n1 (racemic) [Ex 53, Rac-cis-6-(2-{2-[1-(5-fluoropyrimidin-2-yl)piperidin-4-yl]cyclopropyl}ethoxy)-2-methylpyrimidine-4-carbonitrile]",< 10
4,"N#Cc1ccc(OCC[C@@H]2C[C@@H]2C2CCN(c3ncc(Cl)cn3)CC2)cn1 (racemic) [Ex 54, Rac-cis-5-(2-{2-[1-(5-chloropyrimidin-2-yl)piperidin-4-yl]cyclopropyl}ethoxy)pyridine-2-carbonitrile]",50 to 200
5,"Cc1nnc(-c2ccc(OCC[C@H]3C[C@H]3C3CCN(c4ncc(F)cn4)CC3)cc2F)o1 (racemic) [Ex 86, Rac-cis-5-fluoro-2-[4-(2-{2-[3-fluoro-4-(5-methyl-1,3,4-oxadiazol-2-yl)phenoxy]ethyl}cyclopropyl)piperidin-1-yl]pyrimidine]",< 10
6,"Cc1nnc(-c2ccc(OCC[C@H]3C[C@H]3C3CCN(c4ncc(Cl)c(C)n4)CC3)cc2F)o1 (racemic) [Ex 87, Rac-cis-5-chloro-2-[4-(2-{2-[3-fluoro-4-(5-methyl-1,3,4-oxadiazol-2-yl)phenoxy]ethyl}cyclopropyl)piperidin-1-yl]-4-methylpyrimidine]",< 10
7,"Clc1cnc(N2CCC(C3CC3CCOc3ccncc3)CC2)nc1 (racemic) [Ex 98, rac-trans-5-chloro-2-(4-{2-[2-(pyridin-4-yloxy)ethyl]cyclopropyl}piperidin-1-yl)pyrimidine]",50 to 200
8,"Cc1cc(OCC[C@@H]2C[C@H]2C2CCN(c3ncc(Cl)cn3)CC2)nc(C#N)n1 (racemic) [Ex 99, rac-trans-4-{2-{2-[1-(5-chloropyrimidin-2-yl)piperidin-4-yl]cyclopropyl}ethoxy)-6-methylpyrimidine-2-carbonitrile]",10 to 50
9,"Cc1nc(C#N)cc(OCCC2CC2C2CCN(c3ncc(Cl)cn3)CC2)n1 (racemic) [Ex 100, rac trans 6-(2-{2-[1-(5-chloropyrimidin-2-yl)piperidin-4-yl]cyclopropyl}ethoxy)-2-methylpyrimidine-4-carbonitrile]",10 to 50
10,"CS(=O)(=O)c1ccc(OC[C@@H]2C[C@H]2CC2CCN(c3ncc(Cl)cn3)CC2)cc1 (racemic) [Ex 101, rac-trans-5-chloro-2-{4-[(2-{[4-(methylsulfonyl)phenoxy]methyl}cyclopropyl)methyl]piperidin-1-yl}pyrimidine]",50 to 200
11,"Fc1cc(OC[C@@H]2C[C@H]2CC2CCN(c3ncc(Cl)cn3)CC2)ccc1-c1nnc(C2CC2)o1 (racemic) [Ex 111, rac-trans 5-chloro-2-{4-[(2-{[4-(5-cyclopropyl-1,3,4-oxadiazol-2-yl)-3-fluorophenoxy]methyl}cyclopropyl)methyl]piperidin-1-yl}pyrimidine]",10 to 50
12,"Cc1nc(C#N)cc(OC[C@@H]2C[C@H]2CC2CCN(c3ncc(Cl)cn3)CC2)n1 (racemic) [Ex 113, rac-trans-6-[(2-{[1-(5-chloropyrimidin-2-yl)piperidin-4-yl]methyl}cyclopropyl)methoxy]-2-methylpyrimidine-4-carbonitrile]",50 to 200
13,"CS(=O)(=O)c1ccc(OC[C@H]2C[C@H]2CC2CCN(c3ncc(Cl)cn3)CC2)cc1 (racemic) [Ex 116, rac-cis-5-chloro-2-{-4-[(2-{[4-(methylsulfonyl)phenoxy]methyl}cyclopropyl)methyl]piperidin-1-yl}pyrimidine]",> 200
14,"O=C(NC1CC1)c1ccc(OC[C@@H]2C[C@@H]2CC2CCN(c3ncc(Cl)cn3)CC2)cc1F (racemic) [Ex 117, rac-cis 4-[(2-{[1-(5-chloropyrimidin-2-yl)piperidin-4-yl]methyl}cyclopropyl)methoxy]-N-cyclopropyl-2-fluorobenzamide]",10 to 50

# More lines, now with the values ahead:
row,EC50 [nM],SMILES
1,> 200,"Clc1cnc(N2CCC([C@@H]3C[C@@H]3CCOc3cccnc3)CC2)nc1 (racemic) [Ex 48, Rac-cis-5-chloro-2-(4-{2-[2-(pyridin-3-yloxy)ethyl]cyclopropyl}piperidin-1-yl)pyrimidine]"
2,50 to 200,"Clc1cnc(N2CCC(C3CC3CCOc3ccncn3)CC2)nc1 (racemic) [Ex 49, Rac-cis-5-chloro-2-(4-{2-[2-(pyrimidin-4-yloxy)ethyl]cyclopropyl}piperidin-l-yl)pyrimidine]"
3,50 to 200,"N#Cc1cncc(OCC[C@@H]2C[C@@H]2C2CCN(c3ncc(Cl)cn3)CC2)c1 (racemic) [Ex 50, Rac-cis-5-(2-{2-[1-(5-chloropyrimidin-2-yl)piperidin-4-yl]cyclopropyl}ethoxy)nicotinonitrile]"
4,10 to 50,"Clc1cnc(N2CCC([C@@H]3C[C@@H]3CCOc3ccncc3)CC2)nc1 (racemic) [Ex 55, Rac-cis-5-chloro-2-(4-{2-[2-(pyridin-4-yloxy)ethyl]cyclopropyl}piperidin-1-yl)pyrimidine]"
5,< 10,"Cc1cnc(N2CCC([C@@H]3C[C@@H]3CCOc3ccc(-c4nnc(C)o4)c(F)c3)CC2)nc1 (racemic) [Ex 84, rac-cis-2-[4-(2-{2-[3-fluoro-4-(5-methyl-1,3,4-oxadiazol-2-yl)phenoxy]ethyl}cyclopropyl)piperidin-1-yl]-5-methylpyrimidine]"
6,< 10,"Cc1nnc(-c2ccc(OCC[C@H]3C[C@H]3C3CCN(c4ncccn4)CC3)cc2F)o1 (racemic) [Ex 85, Rac-cis-2-[4-(2-{2-[3-fluoro-4-(5-methyl-1,3,4-oxadiazol-2-yl)phenoxy]ethyl}cyclopropyl)piperidin-1-yl]pyrimidine]"
7,> 200,"Cc1nnc(-c2ccc(OCC[C@H]3C[C@H]3C3CCN(c4ncc(Cl)cc4Cl)CC3)cc2F)o1 (racemic) [Ex 88, Rac-cis-3,5-dichloro-2-[4-(2-{2-[3-fluoro-4-(5-methyl-1,3,4-oxadiazol-2-yl)phenoxy]ethyl}cyclopropyl)piperidin-1-yl]pyridine]"
8,< 10,"Cc1nnc(-c2ccc(OCC[C@H]3C[C@H]3C3CCN(c4ccc(C(F)(F)F)cn4)CC3)cc2F)o1 (racemic) [Ex 89, Rac-cis-2-[4-(2-{2-[3-fluoro-4-(5-methyl-1,3,4-oxadiazol-2-yl)phenoxy]ethyl}cyclopropyl)piperidin-1-yl]-5-(trifluoromethyl)pyridinium trifluoroacetate]"
9,10 to 50,"CS(=O)(=O)c1ccc(OCC[C@@H]2C[C@H]2C2CCN(c3ncc(Cl)cn3)CC2)cc1 (racemic) [Ex 90, rac-trans-5-chloro-2-[4-(2-{2-[4-(methylsulfonyl)phenoxy]ethyl}cyclopropyl)piperidin-1-yl]pyrimidine]"
10,50 to 200,"Clc1cnc(N2CCC(C3CC3CCOc3ccncc3)CC2)nc1 (racemic) [Ex 92, rac-trans-5-chloro-2-(4-{2-[2-(pyridin-4-yloxy)ethyl]cyclopropyl}piperidin-1-yl)pyrimidine]"
11,50 to 200,"N#Cc1ccc(OC[C@@H]2C[C@H]2CC2CCN(c3ncc(Cl)cn3)CC2)cc1F (racemic) [Ex 104, Rac-trans-4-[(2-{[1-(5-chloropyrimidin-2-yl)piperidin-4-yl]methyl}cyclopropyl)methoxy]-2-fluorobenzonitrile]"
12,< 10,"O=C(NC1CC1)c1ccc(OC[C@@H]2C[C@H]2CC2CCN(c3ncc(Cl)cn3)CC2)cc1F (racemic) [Ex 106, Rac-trans 4-[(2-{[1-(5-chloropyrimidin-2-yl)piperidin-4-yl]methyl}cyclopropyl)methoxy]-N-cyclopropyl-2-fluorobenzamide]"
13,50 to 200,"Cc1cc(OC[C@@H]2C[C@H]2CC2CCN(c3ncc(Cl)cn3)CC2)nc(C#N)n1 (racemic) [Ex 114, rac-trans-4-[(2-{[1-(5-chloropyrimidin-2-yl)piperidin-4-yl]methyl}cyclopropyl)methoxy]-6-methylpyrimidine-2-carbonitrile]"
14,10 to 50,"N#Cc1ccc(OCC2CC2CC2CCN(c3ncc(Cl)cn3)CC2)c(F)c1 (racemic) [Ex 115, rac-trans-4-[((1S,2S)-2-{[1-(5-chloropyrimidin-2-yl)piperidin-4-yl)methyl}cyclopropyl)methoxy]-3-fluorobenzonitrile]"
